32 compounds from patent US9957271B2, “Substituted bicyclic aza-heterocycles and analogues as sirtuin modulators” (GlaxoSmithKline, LLC, priority 2012, dated 2018) can be followed below.

The structures appear in SMILES notation.

For the test, the target named is T1, SIRT1 (Homo sapiens, UniProt Q96EB6).
T1 sequence (Q96EB6 1-747): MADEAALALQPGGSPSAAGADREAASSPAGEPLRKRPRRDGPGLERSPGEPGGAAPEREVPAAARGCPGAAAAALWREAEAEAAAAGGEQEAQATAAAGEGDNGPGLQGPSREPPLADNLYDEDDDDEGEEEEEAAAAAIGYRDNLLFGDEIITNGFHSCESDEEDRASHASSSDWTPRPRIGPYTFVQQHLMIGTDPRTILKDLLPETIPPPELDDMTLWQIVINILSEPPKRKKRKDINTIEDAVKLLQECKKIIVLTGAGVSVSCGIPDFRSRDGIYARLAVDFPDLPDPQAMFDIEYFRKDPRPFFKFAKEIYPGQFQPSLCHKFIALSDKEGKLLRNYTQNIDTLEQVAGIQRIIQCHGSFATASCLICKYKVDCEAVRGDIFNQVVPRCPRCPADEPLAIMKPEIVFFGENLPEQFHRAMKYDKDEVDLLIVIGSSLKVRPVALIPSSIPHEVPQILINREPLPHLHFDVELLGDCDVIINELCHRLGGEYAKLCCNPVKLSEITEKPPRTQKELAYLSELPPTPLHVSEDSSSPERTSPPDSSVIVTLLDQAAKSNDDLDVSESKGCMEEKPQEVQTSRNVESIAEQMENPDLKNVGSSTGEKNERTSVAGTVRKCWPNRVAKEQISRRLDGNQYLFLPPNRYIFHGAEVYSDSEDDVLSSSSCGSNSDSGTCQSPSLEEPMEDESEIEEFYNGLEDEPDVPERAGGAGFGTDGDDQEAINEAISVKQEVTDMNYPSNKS
Kind of test: TAMRA based mass spectrometry assay of SIRT1 activity. The class given is biochemical. Conditions: TAMRA peptide substrate; for TAMRA EC1.5 (μM): concentration of test compound giving 150% activation of SIRT1; for Emax: percent maximum fold activation of SIRT1, read-out: TAMRA % Fold Act. The text has this:
Mass spectrometry based assays were used to identify modulators of SIRT1 activity. The TAMRA based assay utilized a peptide having 20 amino acid residues as follows: Ac-EE-K(biotin)-[…](Ac)NleSTEG-K(5TMR)-EE-NH2 (SEQ ID NO: 1), wherein K(Ac) is an acetylated lysine residue and Nle is a norleucine. The peptide was labeled with the fluorophore 5TMR (excitation 540 nm/emission 580 nm) at the C-terminus. The sequence of the peptide substrate was based on p53 with several modifications. In addition, the methionine residue naturally present in the sequence was replaced with the norleucine because the methionine may be susceptible to oxidation during synthesis and purification. The Trp based assay utilized a peptide having an amino acid residues as follows: Ac-R-H-K-K(Ac)-W-NH2 (SEQ ID NO: 2).
The TAMRA based mass spectrometry assay was conducted as follows: 0.5 μM peptide substrate and 120 μM βNAD^+ was incubated with 10 nM SIRT1 for 25 minutes at 25° C. in a reaction buffer (50 mM Tris-acetate pH 8, 137 mM NaCl, 2.7 mM KCl, 1 mM MgCl2, 5 mM DTT, 0.05% BSA). The SIRT1 protein was obtained by cloning the SirT1 gene into a T7-promoter containing vector, which was then transformed and expressed in BL21(DE3) bacterial cells. Test compound was added at varying concentrations to this reaction mixture and the resulting reactions were monitored. After the 25 minute incubation with SIRT1, 10 μL of 10% formic acid was added to stop the reaction. The resulting reactions were sealed and frozen for later mass spec analysis. Determination of the amount of deacetylated substrate peptide formed (or, alternatively, the amount of O-acetyl-ADP-ribose (OAADPR) generated) by the sirtuin-mediated NAD-dependent deacetylation reaction allowed for the precise measurement of relative SIRT1 activity in the presence of varying concentrations of the test compound versus control reactions lacking the test compound.
A control for inhibition of sirtuin activity was conducted by adding 1 μL of 500 mM nicotinamide as a negative control at the start of the reaction (e.g., permits determination of maximum sirtuin inhibition). A control for activation of sirtuin activity was conducted using 10 nM of sirtuin protein, with 1 μL of DMSO in place of compound, to determine the amount of deacetylation of the substrate at a given time point within the linear range of the assay. This time point was the same as that used for test compounds and, within the linear range, the endpoint represents a change in velocity.
For the above assay, SIRT1 protein was expressed and purified as follows. The SirT1 gene was cloned into a T7-promoter containing vector and transformed into BL21(DE3). The protein was expressed by induction with 1 mM IPTG as an N-terminal His-tag fusion protein at 18° C. overnight and harvested at 30,000×g. Cells were lysed with lysozyme in lysis buffer (50 mM Tris-HCl, 2 mM Tris[2-carboxyethyl]phosphine (TCEP), 10 μM ZnCl2, 200 mM NaCl) and further treated with sonication for […] for complete lysis. The protein was purified over a Ni-NTA column (Amersham) and fractions containing pure protein were pooled, concentrated and run over a sizing column (Sephadex S200 26/60 global). The peak containing soluble protein was collected and run on an Ion-exchange column (MonoQ). Gradient elution (200 mM-500 mM NaCl) yielded pure protein. This protein was concentrated and dialyzed against dialysis buffer (20 mM Tris-HCl, 2 mM TCEP) overnight. The protein was aliquoted and frozen at −80° C. until further use.

Consider `O=C(NCc1cccnc1)c1cnc2ccc(-c3cccc(C(F)(F)F)c3)nn12` [Compound 1], for which the “TAMRA EC1.5 (μM)” value is reported as “B (EC1.5 1-25 μM)” and the Emax is below 350%.
The corresponding values for `O=C(Nc1nccs1)c1cnc2ccc(-c3cccc(C(F)(F)F)c3)nn12` [Compound 3] are “B (EC1.5 1-25 μM)” and below 350%.
The corresponding values for `O=C(Nc1ccccn1)c1cnc2ccc(-c3cccc(C(F)(F)F)c3)nn12` [Compound 4, N-(pyridin-2-yl)-6-(3-(trifluoromethyl)phenyl)imidazo[1,2-b]pyridazine-3-carboxamide] are “B (EC1.5 1-25 μM)” and below 350%.
For `O=C(Nc1nc(CN2CCOCC2)cs1)c1cnc2ccc(-c3cccc(C(F)(F)F)c3)nn12` [Compound 6], in that order: “A (EC1.5<1 μM)” and at least 350%.
As for `O=C(Nc1nccs1)c1cnc2ccc(-c3cccc(OC(F)(F)F)c3)nn12` [Compound 7], the “TAMRA EC1.5 (μM)” value was “B (EC1.5 1-25 μM)” and the Emax was below 350%.
Consider `O=C(Nc1nccs1)c1cnc2ccc(-c3cccc(N4CCOCC4)c3)nn12` [Compound 9], for which the “TAMRA EC1.5 (μM)” value is “C (EC1.5>25 μM)” and the Emax is below 350%.
For `O=C(Nc1ccccn1)c1cnc2ccc(-c3cccc(N4CCOCC4)c3)nn12` [Compound 10], in that order: “B (EC1.5 1-25 μM)” and below 350%.
As to `CS(=O)(=O)c1cccc(-c2ccc3ncc(C(=O)Nc4ccccn4)n3n2)c1` [Compound 12], the “TAMRA EC1.5 (μM)” value is given as “C (EC1.5>25 μM)” and the Emax was below 350%.
The corresponding values for `O=C(Nc1nccs1)c1cnc2ccc(-c3ccccc3OC(F)(F)F)nn12` [Compound 13] are “A (EC1.5<1 μM)” and at least 350%.
For `O=C(Nc1nccs1)c1cnc2ccc(-c3ccccc3C(F)(F)F)nn12` [Compound 15], in that order: “B (EC1.5 1-25 μM)” and at least 350%.
Turning to `O=C(Nc1ccccn1)c1cnc2ccc(-c3ccccc3C(F)(F)F)nn12` [Compound 16], the “TAMRA EC1.5 (μM)” value is recorded as “A (EC1.5<1 μM)” and the Emax was at least 350%.
The corresponding values for `O=C(Nc1ccncn1)c1cnc2ccc(-c3cccc(C(F)(F)F)c3)nn12` [Compound 18] are “B (EC1.5 1-25 μM)” and below 350%.
With `O=C(Nc1cccc(CN2CCOCC2)n1)c1cnc2ccc(-c3ccccc3C(F)(F)F)nn12` [Compound 19, N-(6-(morpholinomethyl)pyridin-2-yl)-6-(2-(trifluoromethyl)phenyl)imidazo[1,2-b]pyridazine-3-carboxamide], the “TAMRA EC1.5 (μM)” value was “A (EC1.5<1 μM)” and the Emax is at least 350%.
The corresponding values for `O=C(Nc1cccc(N2CCOCC2)n1)c1cnc2ccc(-c3ccccc3C(F)(F)F)nn12` [Compound 21] are “A (EC1.5<1 μM)” and at least 350%.
As for `O=C(Nc1cccc(N2CCCC2)n1)c1cnc2ccc(-c3ccccc3C(F)(F)F)nn12` [Compound 22], the “TAMRA EC1.5 (μM)” value is reported as “A (EC1.5<1 μM)” and the Emax is at least 350%.
With `O=C(Nc1ccnc(N2CCOCC2)c1)c1cnc2ccc(-c3ccccc3C(F)(F)F)nn12` [Compound 24], the “TAMRA EC1.5 (μM)” value is “B (EC1.5 1-25 μM)” and the Emax was at least 350%.
As for `O=C(Nc1nc(CN2CCOCC2)cs1)c1cnc2ccc(-c3cccc(Cl)c3)nn12` [Compound 27], the “TAMRA EC1.5 (μM)” value is listed as “A (EC1.5<1 μM)” and the Emax was at least 350%.
The corresponding values for `O=C(Nc1cccc(CN2CCOCC2)n1)c1cnc2ccc(-c3cccc(F)c3)nn12` [Compound 28] are “A (EC1.5<1 μM)” and below 350%.
For `O=C(Nc1cccc(CN2CCOCC2)n1)c1cnc2ccc(-c3cc(F)ccc3F)nn12` [Compound 30], in that order: “B (EC1.5 1-25 μM)” and below 350%.
The corresponding values for `O=C(Nc1nc(CN2CCOCC2)cs1)c1cnc2ccc(-c3cc(F)ccc3F)nn12` [Compound 31] are “B (EC1.5 1-25 μM)” and below 350%.
For the compound `O=C(Nc1nccs1)c1cnc2ccc(-c3ccccc3C(F)F)nn12` [Compound 33, 6-(2-(difluoromethyl)phenyl)-N-(thiazol-2-yl)imidazo[1,2-b]pyridazine-3-carboxamide], the “TAMRA EC1.5 (μM)” value was “B (EC1.5 1-25 μM)” and the Emax is below 350%.
For `O=C(Nc1cccc(N2CCOCC2)n1)c1cnc2ccc(-c3ccccc3C(F)F)nn12` [Compound 36], in that order: “A (EC1.5<1 μM)” and at least 350%.
For `O=C(Nc1cccc(N2CCCC2)n1)c1cnc2ccc(-c3ccccc3C(F)F)nn12` [Compound 37], in that order: “A (EC1.5<1 μM)” and at least 350%.
As for `O=C(Nc1ccnc(N2CCOCC2)c1)c1cnc2ccc(-c3ccccc3C(F)F)nn12` [Compound 39], the “TAMRA EC1.5 (μM)” value was “A (EC1.5<1 μM)” and the Emax is at least 350%.
Turning to `O=C(Nc1ccnc(N2CCCC2)c1)c1cnc2ccc(-c3ccccc3C(F)F)nn12` [Compound 40], the “TAMRA EC1.5 (μM)” value is listed as “A (EC1.5<1 μM)” and the Emax is at least 350%.
The corresponding values for `O=C(Nc1nc(CN2CCOCC2)cs1)c1cnc2ccc(-c3ccc(F)cc3F)nn12` [Compound 42] are “B (EC1.5 1-25 μM)” and below 350%.
For the compound `O=C(Nc1cccc(CN2CCOCC2)n1)c1cnc2ccc(-c3cc(F)cc(F)c3)nn12` [Compound 45], the “TAMRA EC1.5 (μM)” value was “B (EC1.5 1-25 μM)” and the Emax is below 350%.
In the case of `O=C(Nc1nc(CN2CCOCC2)cs1)c1cnc2ccc(-c3cc(F)cc(F)c3)nn12` [Compound 46], the “TAMRA EC1.5 (μM)” value was “B (EC1.5 1-25 μM)” and the Emax is below 350%.
The corresponding values for `O=C(Nc1nc(CN2CCOCC2)cs1)c1cnc2ccc(-c3cccc(F)c3F)nn12` [Compound 48] are “B (EC1.5 1-25 μM)” and at least 350%.
On to `O=C(Nc1cccc(N2CCC2)n1)c1cnc2ccc(-c3ccccc3C(F)(F)F)nn12` [Compound 49], for which the “TAMRA EC1.5 (μM)” value is “A (EC1.5<1 μM)” and the Emax was at least 350%.
With `O=C(Nc1ccnc(N2CCC2)c1)c1cnc2ccc(-c3ccccc3C(F)F)nn12` [Compound 52], the “TAMRA EC1.5 (μM)” value was “A (EC1.5<1 μM)” and the Emax is at least 350%.
The corresponding values for `Cc1noc(C)c1-c1ccc2ncc(C(=O)Nc3ccnc(N4CCCC4)c3)n2n1` [Compound 54, 6-(3,5-dimethylisoxazol-4-yl)-N-(2-(pyrrolidin-1-yl)pyridin-4-yl)imidazo[1,2-b]pyridazine-3-carboxamide] are “C (EC1.5>25 μM)” and below 350%.
